From patent publication US6486098B1, “Herbicidal phenoxypropionic acid N-alkyl-N-2-fluorophenyl amide compounds” (Dongbu Hannong Chemical Co. Ltd., priority 1999, dated 2002)

Assays:
ZEAMX (Corn) = assay: Leaf treatment test, corn; format: in vivo, Zea mays L.; conditions: 14 days after treatment
Method: (§1) Seeds of rice, wheat, barley, corn, cotton, barnyard grass, common sorgum, large crabgrass and fall panicum were seeded at a pot with a surface area of 600 cm^2. […] 14 days after the treatment, the degree of damage to the plants was rated in % damage in comparison to the development of untreated control.

SORBI (Common sorgum) = assay: Leaf treatment test, common sorgum; format: in vivo, Andropogon sorghum; conditions: 14 days after treatment
Method: as §1

TRZAW (Wheat) = assay: Leaf treatment test, wheat; format: in vivo, Triticum aestivum L.; conditions: 14 days after treatment
Method: as §1

DIGSA (Large crabgrass) = assay: Leaf treatment test, large crabgrass; format: in vivo, Digitaria Sanguinalis (L.) SCOP; conditions: 14 days after treatment
Method: as §1

ECHCG (Barnyard grass) = assay: Leaf treatment test, barnyard grass; format: in vivo, Echinochloa crus-galli Beauv. var. caudata Kitagawa; conditions: leaf treatment at three leaves, 14 days after treatment
Method: as §1

GOSHI (Cotton) = assay: Leaf treatment test, cotton; format: in vivo, Gossypium; conditions: 14 days after treatment
Method: as §1

ORYSA (Rice) = assay: Leaf treatment test, rice; format: in vivo, Oryza sativa L. cv. Dongjin; conditions: 14 days after treatment
Method: as §1

PANDI (Fall panicum) = assay: Leaf treatment test, fall panicum; format: in vivo, Panicum dichotomiflorum Michx; conditions: 14 days after treatment
Method: as §1

GLXMA (Soy bean) = assay: Leaf treatment test, soy bean; format: in vivo, Glycine max (L.) MERR; conditions: 14 days after treatment

| Compound | degree of damage to the plants (% damage) (ZEAMX (Corn); treated amount 0.025 kg/ha) | degree of damage to the plants (% damage) (ZEAMX (Corn); treated amount 0.1 kg/ha) | degree of damage to the plants (% damage) (ZEAMX (Corn); treated amount 0.4 kg/ha) | degree of damage to the plants (% damage) (SORBI (Common sorgum); treated amount 0.025 kg/ha) | degree of damage to the plants (% damage) (SORBI (Common sorgum); treated amount 0.1 kg/ha) | degree of damage to the plants (% damage) (SORBI (Common sorgum); treated amount 0.4 kg/ha) | degree of damage to the plants (% damage) (TRZAW (Wheat); treated amount 0.025 kg/ha) | degree of damage to the plants (% damage) (TRZAW (Wheat); treated amount 0.1 kg/ha) | degree of damage to the plants (% damage) (TRZAW (Wheat); treated amount 0.4 kg/ha) | degree of damage to the plants (% damage) (DIGSA (Large crabgrass); treated amount 0.025 kg/ha) | degree of damage to the plants (% damage) (DIGSA (Large crabgrass); treated amount 0.1 kg/ha) | degree of damage to the plants (% damage) (DIGSA (Large crabgrass); treated amount 0.4 kg/ha) | degree of damage to the plants (% damage) (ECHCG (Barnyard grass); treated amount 0.025 kg/ha) | degree of damage to the plants (% damage) (ECHCG (Barnyard grass); treated amount 0.1 kg/ha) | degree of damage to the plants (% damage) (ECHCG (Barnyard grass); treated amount 0.4 kg/ha) | degree of damage to the plants (% damage) (GOSHI (Cotton); treated amount 0.025 kg/ha) | degree of damage to the plants (% damage) (GOSHI (Cotton); treated amount 0.1 kg/ha) | degree of damage to the plants (% damage) (GOSHI (Cotton); treated amount 0.4 kg/ha) | degree of damage to the plants (% damage) (ORYSA (Rice); treated amount 0.025 kg/ha) | degree of damage to the plants (% damage) (ORYSA (Rice); treated amount 0.1 kg/ha) | also measured |
| --- | --- | --- | --- | --- | --- | --- | --- | --- | --- | --- | --- | --- | --- | --- | --- | --- | --- | --- | --- | --- | --- |
| CCN(C(=O)C(C)Oc1ccc(Oc2nc3ccc(Cl)cc3o2)cc1)c1ccccc1F (stereo not drawn) [Compound No. 2] | 5% | 10% | 70% | 40% | 95% | 100% | 0% | 0% | 0% | 30% | 95% | 100% | 20% | 80% | 95% | 0% | 0% | 0% | 0% | 0% | degree of damage to the plants (% damage) (ORYSA (Rice); treated amount 0.4 kg/ha): 0%; degree of damage to the plants (% damage) (PANDI (Fall panicum); treated amount 0.025 kg/ha): 0%; degree of damage to the plants (% damage) (PANDI (Fall panicum); treated amount 0.1 kg/ha): 100%; degree of damage to the plants (% damage) (PANDI (Fall panicum); treated amount 0.4 kg/ha): 100%; degree of damage to the plants (% damage) (GLXMA (Soy bean); treated amount 0.025 kg/ha): 0%; degree of damage to the plants (% damage) (GLXMA (Soy bean); treated amount 0.1 kg/ha): 0%; degree of damage to the plants (% damage) (GLXMA (Soy bean); treated amount 0.4 kg/ha): 10% |
| CC(Oc1ccc(Oc2nc3ccc(Cl)cc3o2)cc1)C(=O)N(C)c1cc(F)c(F)cc1F (stereo not drawn) [Compound No. 3, 2-[4-(6-Chloro-2-benzoxazoyloxy)-phenoxy]propionic Acid-N-methyl-N-(2,4,5-trifluorophenyl)amide] | 0% | 0% | 0% | 40% | 100% | 100% | 0% | 0% | 0% | 30% | 90% | 100% | 0% | 60% | 95% | 0% | 0% | 0% | 0% | 0% | degree of damage to the plants (% damage) (ORYSA (Rice); treated amount 0.4 kg/ha): 10%; degree of damage to the plants (% damage) (PANDI (Fall panicum); treated amount 0.025 kg/ha): 0%; degree of damage to the plants (% damage) (PANDI (Fall panicum); treated amount 0.1 kg/ha): 0%; degree of damage to the plants (% damage) (PANDI (Fall panicum); treated amount 0.4 kg/ha): 0%; degree of damage to the plants (% damage) (GLXMA (Soy bean); treated amount 0.025 kg/ha): 0%; degree of damage to the plants (% damage) (GLXMA (Soy bean); treated amount 0.1 kg/ha): 0%; degree of damage to the plants (% damage) (GLXMA (Soy bean); treated amount 0.4 kg/ha): 10% |
| CC(Oc1ccc(Oc2nc3ccc(Cl)cc3o2)cc1)C(=O)N(C)c1c(F)cccc1F (stereo not drawn) [Compound No. 4, 2-[4-(6-Chloro-2-benzoxazoyloxy)-phenoxy]propionic Acid-N-methyl-N-(2,6-difluoro-phenyl)amide] | 10% | 40% | 100% | 95% | 100% | 100% | 0% | 0% | 0% | 90% | 100% | 100% | 80% | 95% | 100% | 0% | 0% | 0% | 0% | 20% | degree of damage to the plants (% damage) (ORYSA (Rice); treated amount 0.4 kg/ha): 30%; degree of damage to the plants (% damage) (PANDI (Fall panicum); treated amount 0.025 kg/ha): 40%; degree of damage to the plants (% damage) (PANDI (Fall panicum); treated amount 0.1 kg/ha): 100%; degree of damage to the plants (% damage) (PANDI (Fall panicum); treated amount 0.4 kg/ha): 100%; degree of damage to the plants (% damage) (GLXMA (Soy bean); treated amount 0.025 kg/ha): 0%; degree of damage to the plants (% damage) (GLXMA (Soy bean); treated amount 0.1 kg/ha): 0%; degree of damage to the plants (% damage) (GLXMA (Soy bean); treated amount 0.4 kg/ha): 20% |
